Assay results published in patent US10300067B2, “Tetrahydropyridopyrimidine compound or salt thereof” (TAIHO PHARMACEUTICAL CO., LTD., priority 2014, dated 2019).
Read-outs that look alike come from different tables or passages of the source.

Legend:
Format in all cases: cell-based
human androgen receptor = human androgen receptor (Homo sapiens (Human), UniProt P10275); test: Antagonist activity for AR (pMMTV-luc reporter transcription activity in transfected COS-7 cells, DHT 1 nmol/L); settings: 50% transcription activity inhibition concentration; COS-7 cells with pMMTV-luc and pEX-hAR, DHT 1 nmol/L, 24 hours
In short: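 COS-7 cells co-transfected with pMMTV-luc reporter and CMV-driven human AR expression vector, cultured overnight in phenol red-free RPMI1640 with 10% charcoal-treated FBS. Antagonism measured against 1 nmol/L DHT by luciferase transcription activity.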

androgen receptor = androgen receptor (Homo sapiens (Human), UniProt P10275, T878A); test: Activity of reducing expression level of androgen receptor (Western blotting of LNCaP cell lysate); settings: 48 hours
Procedure: AR positive human prostate cancer cells LNCaP were seeded in a clear bottom 6 well microplate (BD) at 3.5×10^5/well with phenol red free RPMI1640 containing 5% FBS (hereinbelow, the medium is referred to as an evaluation medium), and then cultured overnight. The culture was added with the evaluation medium containing the compound of Examples or the compound of Comparative Examples such that the final concentration of the compound of Examples or the compound of Comparative Examples was 10000 nmol/L, followed by culture for 48 hours. After culture for 48 hours, the medium was removed and the cells were washed with PBS and added with 0.1 mL of Lysis buffer (M-PER added with Protease Inhibitor Cocktail), followed by keeping at 4° C. for 20 minutes. After cell lysis, the cell solution was centrifuged to recover the supernatant as cell lysate. […] The antibody-reacting band (anti AR receptor) was quantified by LAS-3000 (FUJIFILM) using Super Signal West Pico Substrate (Thermo Scientific) as a detection reagent.

[1] = tested on: AR positive human prostate cancer cells VCaP; test: Agonist activity for AR (cell proliferation rate of VCaP cells); settings: 72 hours, 2 to 10000 nmol/L, more than 10% at any concentration = agonist activity for AR
In short: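 VCaP cells seeded at 1.5×10^4/well in phenol-red-free RPMI1640 with 5% DCC-FBS, then exposed 72 h to compound at 2–10000 nmol/L (9 concentrations). Viable cells counted by CellTiter-Glo; proliferation rate (%) relative to medium-only control, agonist activity called when >10% at any concentration.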

[2] = tested on: Human prostate cancer cells LNCaP; test: Androgen-dependent inhibitory activity on proliferation of prostate cancer cells; settings: read-out: GI50 value
Procedure: Human prostate cancer cells LNCaP (Non-Patent Literature 5) having […] androgen receptor gene were seeded in a clear bottom 96 well microplate (BD) at 4.0×10^3/well with phenol red free RPMI1640 containing 5% DCC-FBS (hereinbelow, the medium is referred to as an evaluation medium), and then cultured overnight. The culture was added with the evaluation medium containing DHT (final concentration of DHT: 10 nmol/L) or the evaluation medium containing the compound of Examples or the compound of Comparative Examples (final concentration of the compound of Examples or the compound of Comparative Examples: 10, 30, 100, 300, 1000, 3000, 10000, or 30000 nmol/L), followed by culture for 72 hours. Then, the number of viable cells was counted. The number of viable cells was measured by using Cell Counting Kit-8 (DOJINDO LABORATORIES).

[3] = 50% proliferation inhibition concentration, DHT 10 nmol/L, 72 hours

Chain of androgen receptor (P10275 whole entry T878A): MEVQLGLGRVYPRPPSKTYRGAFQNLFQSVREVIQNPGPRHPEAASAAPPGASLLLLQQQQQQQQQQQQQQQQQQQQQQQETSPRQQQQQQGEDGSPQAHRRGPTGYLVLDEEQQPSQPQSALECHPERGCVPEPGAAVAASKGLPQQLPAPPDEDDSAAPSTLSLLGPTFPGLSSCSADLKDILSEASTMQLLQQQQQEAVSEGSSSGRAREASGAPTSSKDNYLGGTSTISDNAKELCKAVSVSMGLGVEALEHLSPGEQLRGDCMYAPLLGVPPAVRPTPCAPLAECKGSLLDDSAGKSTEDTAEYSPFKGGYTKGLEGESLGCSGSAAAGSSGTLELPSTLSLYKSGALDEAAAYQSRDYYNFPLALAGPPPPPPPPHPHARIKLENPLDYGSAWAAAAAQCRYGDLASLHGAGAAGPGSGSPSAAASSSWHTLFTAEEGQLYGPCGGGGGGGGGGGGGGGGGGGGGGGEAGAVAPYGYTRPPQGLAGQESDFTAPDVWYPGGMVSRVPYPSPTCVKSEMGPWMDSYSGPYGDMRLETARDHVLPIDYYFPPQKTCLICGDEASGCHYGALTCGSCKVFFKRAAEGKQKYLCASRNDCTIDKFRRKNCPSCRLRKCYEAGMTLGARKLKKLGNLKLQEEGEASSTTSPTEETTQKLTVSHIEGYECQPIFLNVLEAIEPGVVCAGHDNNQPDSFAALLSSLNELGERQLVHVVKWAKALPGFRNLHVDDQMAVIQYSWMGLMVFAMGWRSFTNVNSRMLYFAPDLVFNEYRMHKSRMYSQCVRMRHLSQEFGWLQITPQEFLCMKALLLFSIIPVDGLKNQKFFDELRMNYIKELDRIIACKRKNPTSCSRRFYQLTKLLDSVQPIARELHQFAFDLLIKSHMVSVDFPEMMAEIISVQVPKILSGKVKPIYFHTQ
Chain of human androgen receptor (P10275 whole entry): as the sequence (P10275 whole entry T878A) above, with A878T counted along it

Row | SMILES | IC50 (human androgen receptor) [nM] | 10 μM AR expression reducing activity (androgen receptor) | Cell proliferation rate (%) [1] [%] | GI50 [2, 3] [nM] | GI50 ([2]; 72 h) [nM]
1 | CC(C)Oc1ccc(Nc2ncnc3c2CCN(c2ccc(C#N)c(C(F)(F)F)c2)C3)cc1 [Example 2, 4-(4-((4-isopropoxyphenyl)amino)-5,6-dihydropyrido[3,4-d]pyrimidin-7(8H)-yl)-2-(trifluoromethyl)benzonitrile] | 370 | reduced (When the AR expression reducing activity is 50% or more, it is described as “reduced”) | 3.8 | 1000 | 
2 | CC(C)(O)c1ccc(Nc2ncnc3c2CCN(c2ccc(C#N)c(C(F)(F)F)c2)C3)nc1F [Example 5, 4-(4-((6-fluoro-5-(2-hydroxypropan-2-yl)pyridin-2-yl)amino)-5,6-dihydropyrido[3,4-d]pyrimidin-7 (8H)-yl)-2-(trifluoromethyl)benzonitrile] | 190 | reduced (When the AR expression reducing activity is 50% or more, it is described as “reduced”) | −5.5 | 600 | 
3 | CC(C)(O)c1ccc(Nc2ncnc3c2CCN(c2ccc(C#N)c(C(F)(F)F)c2)C3)nn1 [Example 10, 4-(4-((6-(2-hydroxypropan-2-yl)pyridazin-3-yl)amino)-5,6-dihydropyrido[3,4-d]pyrimidin-7 (8H)-yl)-2-(trifluoromethyl)benzonitrile] | 90 | reduced (When the AR expression reducing activity is 50% or more, it is described as “reduced”) | 2.8 | 800 | 
4 | CC(C)Oc1ccc(Nc2ncnc3c2CCN(c2ccc(C#N)c(C(F)(F)F)c2)C3)cn1 [Example 13, 4-(4-((6-isopropoxypyridin-3-yl)amino)-5,6-dihydropyrido[3,4-d]pyrimidin-7(8H)-yl)-2-(trifluoromethyl)benzonitrile] | 110 | reduced (When the AR expression reducing activity is 50% or more, it is described as “reduced”) | 2.8 | 600 | 
5 | CC(C)(COc1ccc(Nc2ncnc3c2CCN(c2ccc(C#N)c(C(F)(F)F)c2)C3)cn1)n1cnnn1 [Example 16, 4-(4-((6-(2-methyl-2-(1H-tetrazol-1-yl)propoxy)pyridin-3-yl)amino)-5,6-dihydropyrido[3,4-d]pyrimidin-7(8H)-yl)-2-(trifluoromethyl)benzonitrile] | 210 | reduced (When the AR expression reducing activity is 50% or more, it is described as “reduced”) | −1.5 | 700 | 
6 | CC(C)(COc1ccc(Nc2ncnc3c2CCN(c2ccc(C#N)c(C(F)(F)F)c2)C3)nc1)n1cnnn1 [Example 17, 4-(4-((5-(2-methyl-2-(1H-tetrazol-1-yl)propoxy)pyridin-2-yl)amino)-5,6-dihydropyrido[3,4-d]pyrimidin-7(8H)-yl)-2-(trifluoromethyl)benzonitrile] | 170 | reduced (When the AR expression reducing activity is 50% or more, it is described as “reduced”) | 0.6 | 700 | 
7 | CS(=O)(=O)N1CCN(CCCOc2ccc(Nc3ncnc4c3CCN(c3ccc(C#N)c(C(F)(F)F)c3)C4)cc2)CC1 [Example 18, 4-(4-((4-(3-(4-(methylsulfonyl)piperazin-1-yl)propoxy)phenyl)amino)-5,6-dihydropyrido[3,4-d]pyrimidin-7(8H)-yl)-2-(trifluoromethyl)benzonitrile] | 360 | reduced (When the AR expression reducing activity is 50% or more, it is described as “reduced”) | −4.6 | 1900 | 
8 | N#Cc1ccc(N2CCc3c(ncnc3Nc3ncc(S(=O)(=O)N4CCCOCC4)s3)C2)cc1C(F)(F)F [Example 20, 4-(4-((5-((1,4-oxazepan-4-yl)sulfonyl)thiazol-2-yl)amino)-5,6-dihydropyrido[3,4-d]pyrimidin-7 (8H)-yl)-2-(trifluoromethyl)benzonitrile] | 100 | reduced (When the AR expression reducing activity is 50% or more, it is described as “reduced”) | 0.0 | 2500 | 
9 | CC(C)(O)CNC(=O)c1ccc(Nc2ncnc3c2CCN(c2ccc(C#N)c(C(F)(F)F)c2)C3)nn1 [Example 32, 6-((7-(4-cyano-3-(trifluoromethyl)phenyl)-5,6,7,8-tetrahydropyrido[3,4-d]pyrimidin-4-yl)amino)-N-(2-hydroxy-2-methylpropyl)pyridazine-3-carboxamide] | 60 | reduced (When the AR expression reducing activity is 50% or more, it is described as “reduced”) | −2.2 | 3100 | 
10 | CC(C)(O)CNC(=O)c1cnc(Nc2ncnc3c2CCN(c2ccc(C#N)c(C(F)(F)F)c2)C3)nc1 [Example 34, 2-((7-(4-cyano-3-(trifluoromethyl)phenyl)-5,6,7,8-tetrahydropyrido[3,4-d]pyrimidin-4-yl)amino)-N-(2-hydroxy-2-methylpropyl)pyrimidine-5-carboxamide] | 700 | reduced (When the AR expression reducing activity is 50% or more, it is described as “reduced”) | 6.4 | 3800 | 
11 | N#Cc1ccc(N2CCc3c(ncnc3Nc3ccc(C(=O)NCc4nc(C(F)(F)F)cs4)cn3)C2)cc1C(F)(F)F [Example 36, 6-((7-(4-cyano-3-(trifluoromethyl)phenyl)-5,6,7,8-tetrahydropyrido[3,4-d]pyrimidin-4-yl)amino)-N-((4-(trifluoromethyl)thiazol-2-yl)methyl)nicotinamide] | 170 | reduced (When the AR expression reducing activity is 50% or more, it is described as “reduced”) | −1.9 | 300 | 
12 | C[C@@H](NC(=O)c1ccc(Nc2ncnc3c2CCN(c2ccc(C#N)c(C(F)(F)F)c2)C3)nc1)c1nnco1 [Example 38, (R)—N-(1-(1,3,4-oxadiazol-2-yl)ethyl)-6-((7-(4-cyano-3-(trifluoromethyl)phenyl)-5,6,7,8-tetrahydropyrido[3,4-d]pyrimidin-4-yl)amino)nicotinamide] | 560 | reduced (When the AR expression reducing activity is 50% or more, it is described as “reduced”) | −2.7 | 1100 | 
13 | C[C@@H](NC(=O)c1ccc(Nc2ncnc3c2CCN(c2ccc(C#N)c(C(F)(F)F)c2)C3)nc1)c1nnc(C(F)(F)F)o1 [Example 40, (R)-6-((7-(4-cyano-3-(trifluoromethyl)phenyl)-5,6,7,8-tetrahydropyrido[3,4-d]pyrimidin-4-yl)amino)-N-(1-(5-(trifluoromethyl)-1,3,4-oxadiazol-2-yl)ethyl)nicotinamide] | 260 | reduced (When the AR expression reducing activity is 50% or more, it is described as “reduced”) | 0.0 | 400 | 
14 | CC(C)(O)C1CCN(C(=O)c2cnc(Nc3ncnc4c3CCN(c3ccc(C#N)c(C(F)(F)F)c3)C4)o2)CC1 [Example 42, 4-(4-((5-(4-(2-hydroxypropan-2-yl)piperidin-1-carbonyl)oxazol-2-yl)amino)-5,6-dihydropyrido[3,4-d]pyrimidin-7(8H)-yl)-2-(trifluoromethyl)benzonitrile] | 340 | reduced (When the AR expression reducing activity is 50% or more, it is described as “reduced”) | −17.2 |  | 1100
